Measured values reported in US12660840B2, “Composition containing polyphenol” (CJ CHEILJEDANG CORPORATION, priority 2019, dated 2026).
Marks after values point to notes of the source that are not given here.

Key:
[1] = DPPH radical scavenging activity; settings: 10 minutes reaction, absorbance 517 nm; Table 7
Method: 4 mM of DPPH solution in ethanol was prepared and used after the absorbance was adjusted to 1.000±0.1. 0.2 mL of each sample was added to a test tube, 2.8 mL of DPPH solution was mixed and allowed to react for 10 minutes, and the absorbance was measured at 517 nm by using a microplate reader (M2, Molecular Device, Canada). L-ascorbic acid was used as a positive control. The DPPH radical scavenging activity was calculated from the following formula: DPPH radical scavenging activity (%)=[1−(A/B)]×100 • (A: absorbance of a group with addition of sample, B: absorbance of a group without addition of sample)

[2] = Oxidation stability of lipid by Rancimat method; settings: fish oil containing 2% of the polyphenol composition, 100° C., Table 9; for IP (min) induction period: air 20 L/hr; for AI Antioxidative Index: relative to lipid without composition
Method: Oxidation stability of lipid was analyzed by using the Rancimat (743 Metrohm Co., Herisau, Switzerland) method. 2.5 g of fish oil [Sigma-Aldrich Co. (St. Louis. MO, USA)] containing 2% of the polyphenol composition was put into a reaction vessel, and air was put at 20 L/hr into lipid on an aluminum heating block controlled at 100° C. to oxidize lipid. The volatile oxidation products generated during this time were transferred to an absorption vessel containing 60 mL of distilled water, and the degree of anti-oxidation was determined through the induction period automatically calculated in accordance with the change of electrical conductivity. For comparison of antioxidative activity, the Antioxidative Index (AI) was calculated by using a lipid sample with no addition of the polyphenol composition as a control group from the following formula: Further, L-ascorbic acid was used as a positive control. Antioxidative Index (AI)=IG/IC (IG: […])

polyphenol oxidase (PPO) = experiment: Polyphenol oxidase (PPO) inhibitory activity; format: biochemical; settings: pH 6.5, 25° C., catechin substrate, absorbance 420 nm; Table 11
Method: 1.7 mL of 50 mM phosphate buffer (pH 6.5) and 0.2 mL of PPO (4,276 units/mg) were mixed, and 0.1 mL of each polyphenol composition was added, and the mixture was left in a constant temperature water bath controlled at 25° C. for 15 minutes, and 1 mL of 4 mM catechin solution was added thereto as a substrate, respectively. Then, a change in absorbance for 5 minutes at 420 nm was measured by using a microplate reader (M2, Molecular Device, Canada). The enzyme inhibitory activity was expressed as absorbance reduction (%) represented by the following formula: Inhibition of PPO activity (%)=[1−(A/B)]×100 • [A: absorbance of sample, B: absorbance of blank solution]

[3] = Trimethylamine (TMA) reducing effect, SPME-GC/MS; settings: TMA 100 ppm standard aqueous solution; compositions T1-T6, 50 ppm of each polyphenol
Method: 30% concentration product of trimethylamine was purchased from Duksan Chemistry (Ansan, Republic of Korea) and used in the experiment. To determine the TMA-reducing effect, the standard reagent of 30% trimethylamine was diluted with distilled water to 100 ppm to prepare a standard aqueous solution. The prepared standard aqueous solution was used as a solvent to prepare a test polyphenol composition, and a trimethylamine-containing polyphenol composition sample was prepared and used for GC/MS analysis. The trimethylamine (TMA) component was determined from the polyphenol composition through the following method. […] The amount of TMA in the composition was calculated by comparing the peak area of 1.0 g of the sample and 1 g of 100 mg/L of TMA relative to each other and performing the comparative relative quantification of the contents of volatile aroma components in the sample. To determine the superiority of the combination of chlorogenic acid, caffeic acid, and quinic acid, the TMA reducing effect, which is known to be an effect of polyphenols, was evaluated. Specifically, the trimethylamine (TMA)-reducing effect was evaluated through the method of Experimental example 2 for each polyphenol composition prepared in Experimental example 1-2. […]

| PPO (%) inhibition of PPO activity (polyphenol oxidase (PPO)) | SMILES | DPPH (%) radical scavenging activity [1] | IP (min) induction period [2] | AI Antioxidative Index [2] | Reduction (%) of trimethylamine (TMA) [3] |
| --- | --- | --- | --- | --- | --- |
| 22.86 ± 0.70^a % | O=C1O[C@H]([C@@H](O)CO)C(O)=C1O [(+) control, L-ascorbic acid, reference compound] | 81.07 ± 0.59^a % | 90.53 ± 1.37^c min | 1.22 ± 0.03^c |  |
| 19.47 ± 0.75^c % | O=C(O)[C@]1(O)C[C@@H](O)[C@@H](O)[C@H](O)C1 [Composition T3, Quinic acid] | 0.60 ± 1.04^e % | 77.23 ± 1.05^e min | 1.04 ± 0.01^e | 57.66% |
